Measurements from US6306893A, “Taxoid derivatives and process for producing the same” (Ensuiko Sugar Refining Company, Ltd, priority 2000, dated 2001).
≈ marks a conversion by molar mass, not a printed value. Entries after “also recorded” stand apart in the source; their conditions may differ.

Tests used:
[1] = physchem; details: for solubility at 18 h: water
Description: 10 mg of each of paclitaxel, 7-GAG-PT, 7-MAG-PT, 10-GAG-DT (α-anomer), 10-GAG-DT (β-anomer) and 10-MAG-DT (α-anomer)was weighed. To those were added 5 ml of water and the mixture was stirred for 18 hours. After completion of the stirring, supernatant was filtered through a membrane filter (0.45 μm), and the filtrate was analyzed by HPLC. The conditions of HPLC analysis were as follows.

[2] = tested on: P388 leukemia cells; experiment: Antitumor test in mice implanted with P388 leukemia cells: survival days; type: in vivo, mouse; details: for Median of Survival Days: P388 i.p. in CDF1 male mice, control 7 days; for Median of Survival Days / % T/C: 20 mg/kg i.p., 5 consecutive days; for % T/C: median survival days treated × 100 / median of control
Description: ^a) Median of survival days of each treated group (day) ×
100/Median of survival days of control group (day)

[3] = cited from earlier work; for Solubility in water: background statement
[4] = Change in body weight of P388 leukemia cell implanted mice; type: in vivo, mouse; details: after i.p. administration
Description: FIG. 1 is a graph illustrating effect of taxoid derivatives on the body weight of P388 leukemia cell implanted mouse.
The mice used were 7 weeks age CDFl mice (male). P388 leukemia cells subcultured in DBA/2 mouse abdominal cavity were injected in the abdominal cavity in an amount of 10^6 cells per mouse. In the case of paclitaxel, samples were dissolved in a solution of ethanol:cremophor=1:1 to a concentration of 6 mg/ml and then diluted 30 times with physiological saline. This was administered intraperitoneally in a dose of 0.1 ml/10 g mouse/time. In the case of taxoid derivatives, samples were dissolved in a solution of ethanol:cremophor=1:1 to a concentration of 60 mg/ml and then diluted 30 times with physiological saline. This was administered intraperitoneally in a dose of 0.1 ml/10 g mouse/time.
The tests were performed by administering the sample for consecutive 5 days starting from the day next to the day when the P388 leukemia cells were injected into the abodominal cavity and observing survival days and change in body weight.

[5] = ratio to paclitaxel (0.4 μg/ml)

SMILES	Solubility in water relative to paclitaxel [1] [times]	solubility at 18 h [1] [µg/mL]	Median of Survival Days [2] [days]	% T/C [2] [%]	further results
CC(=O)O[C@@]12CO[C@@H]1C[C@H](O)[C@@]1(C)C(=O)[C@H](OC(=O)CO[C@@H]3O[C@H](CO)[C@H](O)[C@H](O)[C@H]3O)C3=C(C)[C@@H](OC(=O)[C@H](O)[C@@H](NC(=O)OC(C)(C)C)c4ccccc4)C[C@@](O)([C@@H](OC(=O)c4ccccc4)[C@H]21)C3(C)C [10-GAG-DT (β-anomer), Galactosyloxyacetyl-10-docetaxel]	753	301 (≈ 293 µM)	12	171	
CC(=O)O[C@@]12CO[C@@H]1C[C@H](O)[C@@]1(C)C(=O)[C@H](OC(=O)CO[C@H]3O[C@H](CO)[C@@H](O)[C@H](O)[C@@H]3O)C3=C(C)[C@@H](OC(=O)[C@H](O)[C@@H](NC(=O)OC(C)(C)C)c4ccccc4)C[C@@](O)([C@@H](OC(=O)c4ccccc4)[C@H]21)C3(C)C [10-MAG-DT (α-anomer), Mannosyloxyacetyl-10-docetaxel]	2596	1040 (≈ 1010 µM)	9	129	
CC(=O)O[C@@]12CO[C@@H]1C[C@H](O)[C@@]1(C)C(=O)[C@H](OC(=O)COC3O[C@H](CO)[C@H](O)[C@H](O)[C@H]3O)C3=C(C)[C@@H](OC(=O)[C@H](O)[C@@H](NC(=O)OC(C)(C)C)c4ccccc4)C[C@@](O)([C@@H](OC(=O)c4ccccc4)[C@H]21)C3(C)C (stereo partly shown) [10-GAG-DT, Galactosyloxyacetyl-10-docetaxel]					Antitumor / physiological activity ([2]; P388 leukemia implanted mice): excellent antitumor activity; Survival effect as compared with paclitaxel ([2]; P388 leukemia implanted mice, ratio to paclitaxel): 1.2 times
CC(=O)O[C@@]12CO[C@@H]1C[C@H](O)[C@@]1(C)C(=O)[C@H](OC(=O)COC3O[C@H](CO)[C@@H](O)[C@H](O)[C@@H]3O)C3=C(C)[C@@H](OC(=O)[C@H](O)[C@@H](NC(=O)OC(C)(C)C)c4ccccc4)C[C@@](O)([C@@H](OC(=O)c4ccccc4)[C@H]21)C3(C)C (stereo partly shown) [10-MAG-DT, Mannosyloxyacetyl-10-docetaxel]					Survival effect as compared with paclitaxel ([2]; P388 leukemia implanted mice, versus paclitaxel): substantially equivalent to that of paclitaxel
CC(=O)O[C@@]12CO[C@@H]1C[C@H](O)[C@@]1(C)C(=O)[C@H](O)C3=C(C)[C@@H](OC(=O)[C@H](O)[C@@H](NC(=O)OC(C)(C)C)c4ccccc4)C[C@@](O)([C@@H](OC(=O)c4ccccc4)[C@H]21)C3(C)C [Docetaxel, docetaxel]					Solubility in water of docetaxel relative to taxol ([3]; I. Ringel et al., J. Natl. Cancer Inst., 83, 288 (1991)): 35 times; Solubility in water [3]: very low solubility in water
CC(=O)O[C@H]1C(=O)[C@]2(C)[C@@H](OC(=O)COC3O[C@H](CO)[C@H](O)[C@H](O)[C@H]3O)C[C@H]3OC[C@@]3(OC(C)=O)[C@H]2[C@H](OC(=O)c2ccccc2)[C@]2(O)C[C@H](OC(=O)[C@H](O)[C@@H](NC(=O)c3ccccc3)c3ccccc3)C(C)=C1C2(C)C (stereo partly shown) [7-GAG-PT, Galactosyloxyacetyl-7-paclitaxel]		67.8 (≈ 63.1 µM)			Solubility in water relative to paclitaxel [1, 5]: 169 times
CC(=O)O[C@@]12CO[C@@H]1C[C@H](O)[C@@]1(C)C(=O)[C@H](OC(=O)CO[C@H]3O[C@H](CO)[C@H](O)[C@H](O)[C@H]3O)C3=C(C)[C@@H](OC(=O)[C@H](O)[C@@H](NC(=O)OC(C)(C)C)c4ccccc4)C[C@@](O)([C@@H](OC(=O)c4ccccc4)[C@H]21)C3(C)C [10-GAG-DT (α-anomer), Galactosyloxyacetyl-10-docetaxel]	1204	482 (≈ 469 µM)	12	171	
CC(=O)O[C@H]1C(=O)[C@]2(C)[C@@H](OC(=O)COC3O[C@H](CO)[C@@H](O)[C@H](O)[C@@H]3O)C[C@H]3OC[C@@]3(OC(C)=O)[C@H]2[C@H](OC(=O)c2ccccc2)[C@]2(O)C[C@H](OC(=O)[C@H](O)[C@@H](NC(=O)c3ccccc3)c3ccccc3)C(C)=C1C2(C)C (stereo partly shown) [7-MAG-PT, Mannosyloxyacetyl-7-paclitaxel]		103 (≈ 95.9 µM)			Solubility in water relative to paclitaxel [1, 5]: 257 times
CC(=O)O[C@H]1C(=O)[C@@]2(C)[C@H]([C@H](OC(=O)c3ccccc3)[C@]3(O)C[C@H](OC(=O)[C@H](O)[C@@H](NC(=O)c4ccccc4)c4ccccc4)C(C)=C1C3(C)C)[C@]1(OC(C)=O)CO[C@@H]1C[C@@H]2O [Paclitaxel, paclitaxel]			10	143	Change in body weight [4]: abrupt decrease in body weight; also recorded: decreased abruptly; Solubility in water [3]: very low solubility in water; also recorded: low solubility in water
